Test results as given in US11046709B2, “Fused 1,4-diazepines as BET bromodomain inhibitors” (THE REGENTS OF THE UNIVERSITY OF MICHIGAN, priority 2017, dated 2021).
Like-named read-outs stand apart in the source and are kept apart here.

Key:
[1] = tested on: MOLM-13; assay: Cell growth inhibition, 4-day proliferation assay, MOLM-13; assay type: cell-based; conditions: Homo sapiens
Experimental: (§1) The effect of representative Compounds of the Disclosure on cell viability was determined in a 4-day proliferation assay. Cells were maintained in the appropriate culture medium with 100/0 FBS at 37° C. and an atmosphere of 5% CO2. All the cell lines were used within three months of thawing fresh vials.
(§2) In general, cells were seeded in 96-well flat bottom (Corning COSTAR, Corning, N.Y., cat #3595) or white opaque cell culture plates (BD Falcon, cat #353296) at a density of 3,000-10,000 cells/well in 75 μl of culture medium. Compounds were serially diluted in the appropriate medium, and 75 μl of the diluted compounds were added to the appropriate wells of the cell plate. After the addition of compounds, the cells were incubated at 37° C. in an atmosphere of 5% CO2 for 4 days. Cell viability was determined using the CellTiter-Glo® Luminescent Cell Viability Assay Kit (Promega, Madison, Wis.) for leukemia cells and WST (2-(2-methoxy-4-nitrophenyl)-3-(4-nitrophenyl)-5-(2,4-disulfophenyl)-2H-tetrazolium, monosodium salt) Cell Counting-8 Kit (Dojindo Molecular Technologies, Inc., Rockville, Md.) for adherent cells according to the manufacturers' instructions.
(§3) For WST assay (adherent cells), WST-8 reagent was added to each well at a final concentration of 10% (v/v), and then the plates were incubated at 37° C. for 1-2 hours for color development. The absorbance was measured at 450 nm using a SPECTRAmax PLUS plate reader (Molecular Devices, Sunnyvale, Calif.). The readings were normalized to the DMSO-treated cells and the half maximal inhibitory concentration (IC50) was calculated by nonlinear regression (four parameters sigmoid fitted with variable slope, least squares fit, and no constraint) analysis using the GraphPad Prism 5 software (GraphPad Software, La Jolla, Calif.).
(§4) For CellTiter-Glo assay (suspension cells), 100 μl of CellTiter-Glo® Reagent was added to each well, and then the plates were incubated at room temperature for 10-20 minutes. The luminescent signal was measured using a Tecan Infinite M1000 multimode microplate reader (Tecan, Morrisville, N.C.). The readings were normalized to the DMSO-treated cells and the IC50 was calculated by nonlinear regression (four parameters sigmoid fitted with variable slope, least squares fit, and no constraint) analysis using the GraphPad Prism 5 software. See US 2014/0256706.
(§5) For a number of representative compounds in Table 5, their IC50 values in cell growth inhibition activity in the RS4;11 and MOLM-13 human leukemia cell lines and the MDA-MB-231 breast cancer cell line were evaluated using the WST-8 assay described in EXAMPLE 7, with the data shown in Table 7.

[2] = tested on: MDA-MB-231; assay: Cell growth inhibition, 4-day proliferation assay, MDA-MB-231; assay type: cell-based; conditions: Homo sapiens
Experimental: as §1, §2, §3, §4, §5

[3] = MOLM-13, WST-8 assay, Table 7, read-out: Cell growth inhibition (IC50 (nM)) MOLM-13
[4] = MDA-MB-231, WST-8 assay, Table 7, read-out: Cell growth inhibition (IC50 (nM)) MDA-MB-231

Structure (SMILES) | IC50 [1, 3] | IC50 [2, 4] | further results
Cc1c(C#Cc2cnn(C)c2)sc2c1C(c1ccc(Cl)cc1)=N[C@@H](CC(C)C)c1nnc(C)n1-2 [Compound 108, (S)-4-(4-chlorophenyl)-6-isobutyl-3,9-dimethyl-2-((1-methyl-1H-pyrazol-4-yl)ethynyl)-6H-thieno[3,2-f][1,2,4]triazolo[4,3-a][1,4]diazepine] | 232 nM | 200 ± 30 nM | 
Cc1nnc(C[C@@H]2N=C(c3ccc(Cl)cc3)c3c(sc(C#CC4CCCC4)c3C)-n3c(C)nnc32)o1 [Compound 146, (S)-2-((4-(4-chlorophenyl)-2-(cyclopentylethynyl)-3,9-dimethyl-6H-thieno[3,2-f][1,2,4]triazolo[4,3-a][1,4]diazepin-6-yl)methyl)-5-methyl-1,3,4-oxadiazole] | 17.4 nM | 22.5 nM | 
Cc1c(C#Cc2ccccn2)sc2c1C(c1ccc(Cl)cc1)=N[C@@H](CC(=O)N1CCC(F)(F)C1)c1nnc(C)n1-2 [Compound 171, (S)-2-(4-(4-chlorophenyl)-3,9-dimethyl-2-(pyridin-2-ylethynyl)-6H-thieno[3,2-f][1,2,4]triazolo[4,3-a][1,4]diazepin-6-yl)-1-(3,3-difluoropyrrolidin-1-yl)ethan-1-one] | 151 nM |  | 
Cc1c(C#Cc2cncn2C)sc2c1C(c1ccc(Cl)cc1)=N[C@@H](CC(=O)N1CCN(C)CC1)c1nnc(C)n1-2 [Compound 165, (S)-2-(4-(4-chlorophenyl)-3,9-dimethyl-2-((1-methyl-1H-imidazol-5-yl)ethynyl)-6H-thieno[3,2-f][1,2,4]triazolo[4,3-a][1,4]diazepin-6-yl)-1-(4-methylpiperazin-1-yl)ethan-1-one] | 36.4 nM |  | 
Cc1c(C#Cc2cncn2C)sc2c1C(c1ccc(Cl)cc1)=N[C@@H](CC(=O)N1CCNCC1)c1nnc(C)n1-2 [Compound 164] | 85.4 nM | 304 nM | 
Cc1c(C#Cc2ccccn2)sc2c1C(c1ccc(Cl)cc1)=N[C@@H](CC(=O)N1CCC(F)CC1)c1nnc(C)n1-2 [Compound 173, (S)-2-(4-(4-chlorophenyl)-3,9-dimethyl-2-(pyridin-2-ylethynyl)-6H-thieno[3,2-f][1,2,4]triazolo[4,3-a][1,4]diazepin-6-yl)-1-(4-fluoropiperidin-1-yl)ethan-1-one] |  | 9.67 nM | 
Cc1nnc(C[C@@H]2N=C(c3ccc(Cl)cc3)c3c(sc(C#Cc4ccc(F)cn4)c3C)-n3c(C)nnc32)o1 [Compound 140, (S)-2-((4-(4-chlorophenyl)-2-((5-fluoropyridin-2-yl)ethynyl)-3,9-dimethyl-6H-thieno[3,2-f][1,2,4]triazolo[4,3-a][1,4]diazepin-6-yl)methyl)-5-methyl-1,3,4-oxadiazole] | 11.3 nM | 52.6 nM | 
Cc1c(C#Cc2ccc(N)nc2)sc2c1C(c1ccc(Cl)cc1)=N[C@@H](CC(C)C)c1nnc(C)n1-2 [Compound 107, (S)-5-((4-(4-chlorophenyl)-6-isobutyl-3,9-dimethyl-6H-thieno[3,2-f][1,2,4]triazolo[4,3-a][1,4]diazepin-2-yl)ethynyl)pyridin-2-amine] | 363 nM | 320 ± 90 nM | 
Cc1c(C#Cc2ccccn2)sc2c1C(c1ccc(Cl)cc1)=N[C@@H](CC(=O)NC1CCOCC1)c1nnc(C)n1-2 [Compound 133, (S)-2-(4-(4-chlorophenyl)-3,9-dimethyl-2-(pyridin-2-ylethynyl)-6H-thieno[3,2-f][1,2,4]triazolo[4,3-a][1,4]diazepin-6-yl)-N-(tetrahydro-2H-pyran-4-yl)acetamide] | 8.4 nM | 338 nM | 
Cc1nnc(C[C@@H]2N=C(c3ccc(Cl)cc3)c3c(sc(C#CC(C)C)c3C)-n3c(C)nnc32)o1 [Compound 148, (S)-2-((4-(4-chlorophenyl)-3,9-dimethyl-2-(3-methylbut-1-yn-1-yl)-6H-thieno[3,2-f][1,2,4]triazolo[4,3-a][1,4]diazepin-6-yl)methyl)-5-methyl-1,3,4-oxadiazole] | 6 nM | 7.7 nM | 
Cc1nnc(C[C@@H]2N=C(c3ccc(Cl)cc3)c3c(sc(C#CC4(O)COC4)c3C)-n3c(C)nnc32)o1 [Compound 142, (S)-3-((4-(4-chlorophenyl)-3,9-dimethyl-6-((5-methyl-1,3,4-oxadiazol-2-yl)methyl)-6H-thieno[3,2-f][1,2,4]triazolo[4,3-a][1,4]diazepin-2-yl)ethynyl)oxetan-3-ol] | 95.9 nM | 785 nM | 
Cc1c(C#Cc2ccccn2)sc2c1C(c1ccc(Cl)cc1)=N[C@@H](CC(=O)N1CCCC(F)(F)C1)c1nnc(C)n1-2 [Compound 172, (S)-2-(4-(4-chlorophenyl)-3,9-dimethyl-2-(pyridin-2-ylethynyl)-6H-thieno[3,2-f][1,2,4]triazolo[4,3-a][1,4]diazepin-6-yl)-1-(3,3-difluoropiperidin-1-yl)ethan-1-one] | 71 nM |  | 
Cc1c(C#Cc2ccccn2)sc2c1C(c1ccc(Cl)cc1)=N[C@@H](CC(=O)N1CCC(C)(O)CC1)c1nnc(C)n1-2 [Compound 137, (S)-2-(4-(4-chlorophenyl)-3,9-dimethyl-2-(pyridin-2-ylethynyl)-6H-thieno[3,2-f][1,2,4]triazolo[4,3-a][1,4]diazepin-6-yl)-1-(4-hydroxy-4-methylpiperidin-1-yl)ethan-1-one] | 43200 nM | > 10000 nM | 
Cc1c(C#Cc2ccc(O)cn2)sc2c1C(c1ccc(Cl)cc1)=N[C@@H](C)c1nnc(C)n1-2 [Cpd. No. 42] |  |  | IC50 ([1]; MOLM-13, 96 h, read-out: Cell IC50 (nM) MOLM13): 10.6 nM; IC50 ([2]; MDA-MB-231, 96 h, read-out: Cell IC50 (nM) MDA-MB-231): 7.9 nM
Cc1c(C#Cc2ccccn2)sc2c1C(c1ccc(Cl)cc1)=N[C@@H](CC(=O)N1CC(C)(O)C1)c1nnc(C)n1-2 [Compound 138, (S)-2-(4-(4-chlorophenyl)-3,9-dimethyl-2-(pyridin-2-ylethynyl)-6H-thieno[3,2-f][1,2,4]triazolo[4,3-a][1,4]diazepin-6-yl)-1-(3-hydroxy-3-methylazetidin-1-yl)ethan-1-one] | 15 to 30 nM | 211 nM | 
Cc1nnc(C[C@@H]2N=C(c3ccc(Cl)cc3)c3c(sc(C#CC(C)(C)C)c3C)-n3c(C)nnc32)o1 [Compound 147, (S)-2-((4-(4-chlorophenyl)-2-(3,3-dimethylbut-1-yn-1-yl)-3,9-dimethyl-6H-thieno[3,2-f][1,2,4]triazolo[4,3-a][1,4]diazepin-6-yl)methyl)-5-methyl-1,3,4-oxadiazole] | 7.4 nM | 20.1 nM | 
Cc1c(C#Cc2cncn2C)sc2c1C(c1ccc(Cl)cc1)=N[C@@H](CC(=O)N1CCN(C(=O)OC(C)(C)C)CC1)c1nnc(C)n1-2 [Compound 163, tert-butyl (S)-4-(2-(4-(4-chlorophenyl)-3,9-dimethyl-2-((1-methyl-1H-imidazol-5-yl)ethynyl)-6H-thieno[3,2-f][1,2,4]triazolo[4,3-a][1,4]diazepin-6-yl)acetyl)piperazine-1-carboxylate] | 33.1 nM | 362 nM | 
Cc1c(C#Cc2ccccn2)sc2c1C(c1ccc(Cl)cc1)=N[C@@H](CC(=O)N1CC3(CNC3)C1)c1nnc(C)n1-2 [Compound 170, (S)-2-(4-(4-chlorophenyl)-3,9-dimethyl-2-(pyridin-2-ylethynyl)-6H-thieno[3,2-f][1,2,4]triazolo[4,3-a][1,4]diazepin-6-yl)-1-(2,6-diazaspiro[3.3]heptan-2-yl)ethan-1-one] | 115 nM |  | 
Cc1c(C#Cc2cnn(CCC(=O)O)c2)sc2c1C(c1ccc(Cl)cc1)=N[C@@H](C)c1nnc(C)n1-2 [Compound 102, (S)-3-(4-((4-(4-chlorophenyl)-3,6,9-trimethyl-6H-thieno[3,2-f][1,2,4]triazolo[4,3-a][1,4]diazepin-2-yl)ethynyl)-1H-pyrazol-1-yl)propanoic acid] |  |  | IC50 ([2]; MDA-MB-231, read-out: Cell growth inhibition (IC50 (nM)) MDA-MB-231): 3000 ± 300 nM
Cc1c(C#Cc2cnn(CCCC(=O)O)c2)sc2c1C(c1ccc(Cl)cc1)=N[C@@H](C)c1nnc(C)n1-2 [Compound 101, (S)-4-(4-((4-(4-chlorophenyl)-3,6,9-trimethyl-6H-thieno[3,2-f][1,2,4]triazolo[4,3-a][1,4]diazepin-2-yl)ethynyl)-1H-pyrazol-1-yl)butanoic acid] |  | 1030 ± 700 nM | 
